Measurements taken from patent publication US11236086B2, “Substituted pyrrolopyridines as inhibitors of activin receptor-like kinase” (BLUEPRINT MEDICINES CORPORATION, priority 2017, dated 2022).

How the values were obtained:
[1] = target: T1, ALK2R206H (mutant ALK2, N-terminally tagged with GST) (Homo sapiens, UniProt Q04771, R206H); assay: ALK binding assay (LANTHASCREEN TR-FRET competitive binding, displacement of Kinase Tracer 178); conditions: read-out: Binding Assay (IC50 class)
T1 construct: purchased Carna Bioscience or ThermoFisher 09-148 or PV6232
T1 sequence (Q04771 21-509 R206H): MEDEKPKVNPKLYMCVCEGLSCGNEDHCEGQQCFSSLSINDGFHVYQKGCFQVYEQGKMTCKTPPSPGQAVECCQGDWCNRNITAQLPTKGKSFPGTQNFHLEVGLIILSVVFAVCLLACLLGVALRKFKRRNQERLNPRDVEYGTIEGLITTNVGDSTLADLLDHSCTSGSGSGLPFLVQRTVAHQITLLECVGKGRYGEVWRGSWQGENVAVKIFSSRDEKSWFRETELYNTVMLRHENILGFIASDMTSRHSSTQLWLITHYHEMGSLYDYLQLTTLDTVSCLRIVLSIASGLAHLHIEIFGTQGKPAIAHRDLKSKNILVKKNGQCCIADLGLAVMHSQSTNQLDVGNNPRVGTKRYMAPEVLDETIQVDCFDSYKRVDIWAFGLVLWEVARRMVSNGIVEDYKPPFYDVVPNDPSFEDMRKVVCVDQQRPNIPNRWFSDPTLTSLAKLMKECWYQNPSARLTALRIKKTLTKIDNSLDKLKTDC
Procedure, shortened: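 Competitive displacement of Kinase Tracer 178 (50 nM) from N-terminally GST-tagged mutant ALK2 R206H (2-5 nM) by compound, detected by TR-FRET with Eu-anti-GST antibody (4-10 nM). 30 min room temperature incubation, 1% DMSO final; normalized signal fitted to 4-parameter log dose response for IC50.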

[2] = target: T2, human ALK2 R206H (Homo sapiens, UniProt Q04771, R206H); assay: Cell-based ALK2-R206H cell activity assay (Smad1-Ser463/Ser465 phosphorylation by AlphaLISA in HEK293-ALK2-R206H cells); conditions: phospho-Smad1 AlphaLISA, read-out: Cell Line (Cell Assay, IC50 class)
T2 construct: expressed in transfected cells; host or cells: HEK293 (ATCC CRL1573), lentivirus transduction, blasticidin selection
T2 sequence (Q04771 21-509 R206H): T1 sequence (Q04771 21-509 R206H)
Procedure: Example 11. Cell-Based ALK2-R206H Cell Activity Assay
A HEK293 (ATCC, Cat No. CRL1573) based stable cell line expressing human ALK2 R206H cDNA (synthesized by GeneScript, Piscataway, N.J.) and a FLAG tag at the C-terminus was generated by lentivirus transduction and subsequent blasticidin (Life Technologies, Cat No. A1113902) selection at 10 μg/ml for >2 wks. This cell line was named HEK293-ALK2-R206H.
B. Measurement of Smad1-Ser463/Ser465 Phosphorylation by AlphaLISA
HEK293-ALK2-R206H cells were grown, harvested, and then resuspended in serum-free, phenol red-free DMEM high glucose media (Life Technologies, Cat No. 31053). The media also contained 50 units/ml penicillin and 50 μg/ml streptomycin (Life Technologies, Cat. No. 15070-063). HEK293-ALK2-R206H cells were then plated in white opaque 384-wells microplates (2×10^4/well) (OptiPlate-384, PerkinElmer, Waltham, Mass., Cat No. 6007299) overnight (>16h) at 37° C. 5% CO2 for use in the assay.
Test compounds were first diluted to 4 mM or 0.4 mM and then serially diluted 3-fold into 10 different concentrations using DMSO. Each concentration of compound was further diluted 40-fold with phenol red-free DMEM (Life Technologies, Cat No. 31053). 2 μl of the diluted compounds were then dispensed into the HEK293-ALK2-R206H cell-containing wells of the microplates in duplicates. In this way, each compound was tested in 10 doses (3-fold serial dilution with the top concentration being 10 μM or 1 μM). Liquid handling was achieved using a Bravo Automated Liquid Handling Platform (Agilent Technologies). DMSO without compound was used as a negative control. The positive control was 1 μM LDN193189, a known bone morphogenetic protein (BMP inhibitor).
After 2-3 hours of incubation with test compound or control, the cells were lysed and signal was developed using ALPHASCREEN® SUREFIRE® SMAD1 (p-Ser463/465) cellular kinase assay kit (PerkinElmer, Cat No. TGRSM1S10K) following the manufacturer's recommended protocol. The microplates were read using Perkin Elmer ENVISION® plate reader (emission […]). The signal reflected the level of phospho-Ser/463/465-Smad1 in the lysate. The raw data were plotted using the DMSO negative and LDN193189 positive controls as the 0% and 100% inhibition, respectively. The 10-point dose response curve was used to calculate the IC50 values.
The results of this assay are shown in Table 3 in the column labeled “Cell Assay” wherein “A” represents an IC50 of less than or equal to 100 nM; “B” an IC50 of greater than 100 nM and less than or equal to 500 nM; “C” an IC50 of greater than 500 nM. Blank values in the table indicate that the particular compound was not tested in this assay.

Row | SMILES | IC50 [1] [nM] | IC50 [2] [nM]
1 | Cn1cc(-c2cc3c(N4CCN(C(=O)OC5(C)COC5)CC4)ccnc3[nH]2)cn1 [Compound 152] | ≤ 10 | 100 to 500
2 | CC(C)n1cc(-c2cc3c(N4CCN(C(=O)[C@H]5CC[C@H](C#N)CC5)CC4)ccnc3[nH]2)cn1 [Compound 381] | ≤ 10 | ≤ 100
3 | CCOC(=O)N1CCN(c2ccnc3[nH]c(-c4ccc(C#N)cn4)cc23)CC1 [Compound 56] | ≤ 10 | 100 to 500
4 | CCN1CCN(c2ccc(-c3cc4c(N5CCN(C(=O)C6CC6)CC5)ccnc4[nH]3)nc2)CC1 [Compound 424] | ≤ 10 | ≤ 100
5 | N#CC1(c2ccc(-c3cc4c(N5CCN(C(=O)C6CC6)CC5)ccnc4[nH]3)cc2)CC1 [Compound 241] | ≤ 10 | ≤ 100
6 | Cc1nc(-c2cc3c(N4CCN(C(=O)[C@H]5C[C@H](C#N)C5)CC4)ccnc3[nH]2)cs1 [Compound 205, (1r,3r)-3-(4-(2-(2-methylthiazol-4-yl)-1H-pyrrolo[2,3-b]pyridin-4-yl)piperazine-1-carbonyl)cyclobutanecarbonitrile] | ≤ 10 | ≤ 100
7 | CC(C)(O)c1ccc(-c2cc3c(N4CCN(C(=O)C5CC5)CC4)ccnc3[nH]2)cc1 [Compound 195] | ≤ 10 | ≤ 100
8 | CC(C#N)Cn1cc(-c2cc3c(N4CCN(C(=O)OC5COC5)CC4)ccnc3[nH]2)cn1 (centres unmarked) [Compound 352] | ≤ 10 | 100 to 500
9 | Cc1nn(C(C)C)cc1-c1cc2c(N3CCN(C(=O)OC4COC4)CC3)ccnc2[nH]1 [Compound 304] | ≤ 10 | ≤ 100
10 | CC#Cc1c(-c2cnn(C)c2)[nH]c2nccc(N3CCN(C(=O)OC4COC4)CC3)c12 [Compound 285] | ≤ 10 | ≤ 100
11 | Cc1cc(-c2cc3c(N4CCN(C(=O)OC5COC5)CC4)ccnc3[nH]2)cs1 [Compound 169] | ≤ 10 | ≤ 100
12 | O=C(OC1COC1)N1CCN(c2ccnc3[nH]c(-c4ncc(C5CC5)s4)cc23)CC1 [Compound 312] | ≤ 10 | ≤ 100
13 | Cn1cc(-c2cc3c(N4CCN(C(=O)O[C@H]5COC[C@@H]5F)CC4)ccnc3[nH]2)cn1 [Compound 254] | ≤ 10 | 100 to 500
14 | Cn1cc(-c2cc3c(N4CCN(C(=O)OC5CC5)CC4)ccnc3[nH]2)cn1 [Compound 30] | ≤ 10 | ≤ 100
15 | Cn1cc(-c2[nH]c3nccc(N4CCN(C(=O)OC5CS(=O)(=O)C5)CC4)c3c2C#N)cn1 [Compound 414] | ≤ 10 | ≤ 100
16 | Cc1nc(-c2cc3c(N4CCN(C(=O)OC5COC5)CC4)ccnc3[nH]2)cn1C [Compound 147] | ≤ 10 | ≤ 100
17 | CCOC(=O)N1CCN(c2ccnc3[nH]c(-c4cnn(CC(C)C#N)c4)cc23)CC1 (centres unmarked) [Compound 214] | ≤ 10 | 100 to 500
18 | Cc1nc(-c2[nH]c3nccc(N4CCN(C(=O)OC5CCC5)CC4)c3c2C#N)cn1C [Compound 284] | ≤ 10 | ≤ 100
19 | Cc1nc(-c2[nH]c3nccc(N4CCN(C(=O)OC5CCC5)CC4)c3c2C#N)cs1 [Compound 294] | ≤ 10 | ≤ 100
20 | O=C(OC1COC1)N1CCN(c2ccnc3[nH]c(-c4csc(C(F)(F)F)n4)cc23)CC1 [Compound 408] | ≤ 10 | 100 to 500
21 | CCOC(=O)N1CCN(c2ccnc3[nH]c(-c4cnn(C(C)C)c4)cc23)CC1 [Compound 96] | ≤ 10 | ≤ 100
22 | CCOC(=O)N1CCN(c2ccnc3[nH]c(-c4cnn(C)c4)c(Cl)c23)CC1 [Compound 121] | ≤ 10 | ≤ 100

Results, then the compound that gave them:

Row | IC50 [1] [nM] | IC50 [2] [nM] | SMILES
23 | ≤ 10 | 100 to 500 | CCOC(=O)N1CCN(c2ccnc3[nH]c(-c4cn(C)nc4Cl)cc23)CC1 [Compound 122]
24 | ≤ 10 | 100 to 500 | Cc1c(-c2cc3c(N4CCN(C(=O)[C@H]5CC[C@H](C#N)CC5)CC4)ccnc3[nH]2)cnn1C [Compound 334]
25 | ≤ 10 | ≤ 100 | CC(C)(C)c1csc(-c2cc3c(N4CCN(C(=O)OC5COC5)CC4)ccnc3[nH]2)n1 [Compound 372]
26 | ≤ 10 | 100 to 500 | CCc1csc(-c2cc3c(N4CCN(C(=O)OC5COC5)CC4)ccnc3[nH]2)n1 [Compound 251]
27 | ≤ 10 | ≤ 100 | Cc1nc(-c2[nH]c3nccc(N4CCN(C(=O)O[C@H]5C[C@H](F)C5)CC4)c3c2C#N)cs1 [Compound 365]
28 | ≤ 10 | 100 to 500 | O=C(OC1COC1)N1CCN(c2ccnc3[nH]c(-c4cnn(C5COC5)c4)cc23)CC1 [Compound 300]
29 | ≤ 10 | ≤ 100 | Cn1cnc(-c2[nH]c3nccc(N4CCN(C(=O)OCC(F)F)CC4)c3c2C#N)c1 [Compound 257]
30 | ≤ 10 | 100 to 500 | Cn1cc(-c2cc3c(N4CCN(C(=O)CC5CC5)CC4)ccnc3[nH]2)cn1 [Compound 21]
31 | ≤ 10 | ≤ 100 | CCOC(=O)N1CCN(c2ccnc3[nH]c(-c4ccc([C@]5(O)CCOC5)cc4)cc23)CC1 [Compound 354]
32 | ≤ 10 | 100 to 500 | O=C(c1ccc(-c2cc3c(N4CCN(C(=O)C5CC5)CC4)ccnc3[nH]2)cc1)N1CCC1 [Compound 324]
33 | ≤ 10 | ≤ 100 | CCOC(=O)N1CCN(c2ccnc3[nH]c(-c4ncc(CC)s4)cc23)CC1 [Compound 113]
34 | ≤ 10 | ≤ 100 | CC(C)N1CCC(C)(c2ccc(-c3cc4c(N5CCN(C(=O)OC6COC6)CC5)ccnc4[nH]3)cc2)CC1 [Compound 473]
35 | ≤ 10 | ≤ 100 | CCOC(=O)N1CCN(c2ccnc3[nH]c(-c4ccc(C5(O)CCOCC5)cn4)cc23)CC1 [Compound 396]
36 | ≤ 10 | 100 to 500 | CCOC(=O)N1CCN(c2ccnc3[nH]c(-c4ccc(C)cn4)cc23)CC1 [Compound 24]
37 | ≤ 10 | 100 to 500 | Cn1cc(-c2cc3c(N4CCN(C(=O)C5CC(F)(F)C5)CC4)ccnc3[nH]2)cn1 [Compound 180]
38 | ≤ 10 | 100 to 500 | O=C(OC1COC1)N1CCN(c2ccnc3[nH]c(-c4nc(C5CC5)cs4)cc23)CC1 [Compound 313]
39 | ≤ 10 | 100 to 500 | Cn1cc(-c2cc3c(N4CCN(C(=O)[C@H]5C[C@@H]5C#N)CC4)ccnc3[nH]2)cn1 [Compound 54]
40 | ≤ 10 | 100 to 500 | Cn1cc(-c2cc3c(N4CCN(C(=O)C5CC5)CC4)ccnc3[nH]2)cn1 [Compound 6]
41 | ≤ 10 | 100 to 500 | Cn1cc(-c2[nH]c3nccc(N4CCN(C(=O)C5CC5)CC4)c3c2C#N)cn1 [Compound 55]
42 | ≤ 10 | ≤ 100 | Cc1nc(-c2[nH]c3nccc(N4CCN(C(=O)OC5CC(F)(F)C5)CC4)c3c2C#N)cn1C [Compound 412]
43 | ≤ 10 | 100 to 500 | O=C(C1CC1)N1CCN(c2ccnc3[nH]c(-c4cnn(C5COC5)c4)cc23)CC1 [Compound 133]
